Legend:
OT1 CD8 T cells = test: In vitro activation of OT1 splenocytes with N4 peptide and IL-2, CD62L by flow cytometry; type: cell-based, mouse
Protocol: (§1) To evaluate the effects of MPC inhibition on T cell differentiation, OT1 splenocytes were cultured in the presence of 1 μg/ml ovalbumin-derived N4 (SIINFEKL) peptide, 100 IU/ml recombinant human IL-2 (rhIL-2) and the MPC inhibitor (MPCi) UK5099 at 75 μM or control DMSO for 3 days. The inhibitor or DMSO was then washed away and the cells were cultured for 4 more days in the presence of 100 IU/ml IL-2 and 10 ng/ml rhIL-7 (FIG. 1A). […] Thus, the increase in the memory markers upon MPCi in vitro treatment occurs at the transcriptional level.
OT1 splenocytes were cultured for 3 days at a concentration of 10^6 cells per mL in RPMI medium (Gibco 61870-01) supplemented with 10% FBS, (Gibco 10270-106), 1% Penicillin/Streptomycin (Gibco 15070-063), 50 μM β-mercaptoethanol, 1% HEPES (Gibco 15630-080), 1× Non-essential amino acids (Gibco 11140-035), 1% L-glutamine (Gibco 25030-081), 1 mM Sodium Pyruvate (Gibco 11360-039). Cells were additionally supplemented with hIL-2 100 U/ml (Glaxo-IMB), ovalbumin N4 peptide (SIINFEKL) 1 μg/ml and either with 75 μM UK5099 (Sigma Aldrich) or with their solvent DMSO as a control. At day 3, splenocytes were collected, washed and split, and cells were cultured for 4 additional days with 100 U/ml hIL-2 and hIL-7 (Peprotech 200-07) supplemented either with 75 μM UK5099 (Sigma Aldrich) or DMSO. […]

OT1 T cells = test: RNA sequencing of OT1 T cells; type: cell-based, mouse; settings: day 7; compared to DMSO
Protocol: as §1
[…] Purity-filtered reads were adapters and quality trimmed with Cutadapt (v. 1.8, Martin 2011). Reads matching to ribosomal RNA sequences were removed with fastq_screen (v. 0.9.3). Remaining reads were further filtered for low complexity with reaper (v. 15-065, Davis et al. 2013). Reads were aligned against Mus musculus.GRCm38.86 genome using STAR (v. 2.5.2b, Dobin et al. 2013). The number of read counts per gene locus was summarized with htseq-count (v. 0.6.1, Anders et al. 2014) using Mus musculus.GRCm38.86gene annotation. Quality of the RNA-seq data alignment was assessed using RSeQC (v. 2.3.7, Wang et al. 2012). Reads were also aligned to the Mus musculus.GRCm38.86 transcriptome using STAR (v. 2.5.2b, Dobin et al. 2013) and the estimation of the isoforms abundance was computed using RSEM (v. 1.2.31, Li and Dewey 2011). Statistical analysis was performed for genes in R (R version 3.4.0). An analysis with all genes, including mitochondria, was done. Genes with less than one count per million in all samples were filtered out. Library sizes were scaled using TMM normalization (EdgeR package version 3.14.0; Robinson et al. 2010) and log-transformed with EdgeR cpm function.
Differential expression was computed with limma (Ritchie et al. 2015) by fitting the samples into a linear model using all conditions as factors and correcting for batch effect by introducing factors for the replicates (=paired analysis).

adult human T cells = test: Mitochondrial staining (MitoGreen, TMRM) of adult human T cells; type: cell-based; settings: day 9; 25 μM; fold change compared to DMSO
Protocol: FIG. 7: MPC inhibition during the activation and culture of adult human T cells induces a memory phenotype. (A) Experimental design. PBMCs were isolated from adult healthy volunteers and activated with anti-CD3/CD28 beads in the presence of DMSO or UK5099 (25 μM). Beads were removed at day 5 and T cell phenotype was analysed at day 9. (B) Percentage of CD8 T cells expressing the memory marker CD62L. (C) The mean fluorescent intensity of CD62L in the respective positive population. (D) Percentage of CD8 T cells expressing markers that allows their identification as stem cell memory T cells (TSCM). (E-F) Mitochonrial mass (identified by MitoGreen staining, E) and mitochondrial membrane potential (TMRM, F), measured by flow cytometry and expressed as fold change as compared to DMSO. (G) Mitochondrial membrane potential normalized for the mitochondrial mass, expressed as the ratio of […], fold change as compared to DMSO. Pooled data from 2 independant experiments. ns: non-significant, *p<0.05, **[…], ***p<0.001. Data represents mean±s.e.m.
Heparinised blood was diluted with PBS and pipetted on top of Ficoll-paque (LymphoPrep). After centrifugation at 1800 rpm for 20 minutes at room temperature, the layer of cells at the intersection, containing the PBMCs was removed, washed and resuspended at 5×10^5 cells/ml of RPMI medium containing 8% human serum (AB serum), antibiotics, 2 mM L-Glutamine, 1% non-essential amino acids, 1 mM sodium pyruvate and 50 μM β-mercaptoethanol (all Gibco). Cells were activated with Human T-activator CD3/CD28 Dynabeads at a 1 bead/cell ratio with 150 IU/ml human recombinant IL2 and DMSO or 25 μM UK5099. Throughout the culture, cells were regularly split when necessary and beads were removed at day 5. At day 9, a fraction of the cells was stained with antibodies for flow cytometry analysis or for mitochondrial analysis.
2×10^5 cells were stained with 25 nM TMRM and 50 nM MitoGreen (Molecular Probes, Invitrogen) for 30 minutes in RPMI with 5% FCS at 37° C. […]

[1] = system: human CD8 T cells from umbilical cord blood; test: Human cord blood PBMC culture with anti-CD3/CD28 beads, CD62L in CD8 T cells by flow cytometry; type: cell-based; settings: 25 μM; day 11; 3 different donors; versus DMSO
Protocol: To most closely mimic the experimental conditions that were successful by using naïve mouse OT1 CD8 T cells, it was tested whether the MPCi on the most naïve human CD8+ T cells can be obtained, i.e. from umbilical cord blood (FIG. 1E).
Peripheral blood mononuclear cells were isolated from fresh umbilical vein cord blood on a Percoll gradient. PBMCs were then cultured in RPMI supplemented with 10% human serum. 10^4 PBMC's were seeded per well in a round bottom 96-well plate and activated with anti-CD3/CD28 beads at a 1:2 cell:bead ratio and 300 U/ml rhIL-2, in the presence of 25 μM UK5099 or DMSO. Cells were regularly split and CD62L expression was determined by flow cytometry on day 11.

`N#CC(=Cc1cn(-c2ccccc2)c2ccccc12)C(=O)O` [UK5099, 2-cyano-3-(1-phenyl-1H-indol-3-yl)-2-propenoic acid] was tested, and the “surface expression of the central memory marker CD62L” value (OT1 CD8 T cells; 75 μM d0-d3, then washed away, flow cytometry day 7, compared to DMSO) was “strong increase”, the “surface CD62L expression at day 7, continued treatment” value (OT1 CD8 T cells; MPCi treatment continued between d3 and d7) was “even more pronounced than a d0-d3 treatment only” and the “Ccr7 expression, RNA sequencing” value (OT1 T cells) was “increased”. The “Sell (CD62L) expression, RNA sequencing” value (OT1 T cells) was “at least 1.5 fold”, the “Tcf7 expression, RNA sequencing” value (OT1 T cells) was “increased” and the “mitochondrial membrane potential (TMRM)” value (adult human T cells) was “significantly increased”. The “mitochondrial membrane potential normalized for the mitochondrial mass” value (adult human T cells) was “more polarised mitochondria”, the “total mitochondrial mass (MitoGreen)” value (adult human T cells) was “did not impact” and the “CD62L expression in human cord blood CD8 T cells” value [1] was “significant increase”.

— patent US20230302131A1, “MPC INHIBITION FOR PRODUCING T-CELLS WITH A MEMORY PHENOTYPE” (UNIVERSITÉ DE LAUSANNE, priority 2020, published 2023)
